Experimental data from patent publication US11999739B2, “Antimicrobials methods of making and using the same” (BIOVERSYS AG, priority 2016, dated 2024).
In brackets after ≈: the same amount, converted by molar mass. Read-outs that look alike come from different tables or passages of the source.

Legend:
E. coli DH10B = test: CLSI broth microdilution MIC, E. coli DH10B recipient; type: cell-based
Procedure: (§1) MICs of the four tested compounds and comparators (amikacin, cefepime, colistin, meropenem and tigecyline) were determined by CLSI broth microdilution using pre-prepared plates (Trek Diagnostic Systems) (CLSI Approved Standard M7-A10). Carbapenemase and mcr-1 genes were detected by PCR or sequencing. Efflux levels in P. aeruginosa isolates were inferred by interpretive reading of antibiogram data.

[1] = system: E. coli DH10B mcr-1 transformant; test: CLSI broth microdilution MIC, E. coli DH10B mcr-1 transformant; type: cell-based
Procedure: as §1

Enterobacteriaceae = test: CLSI broth microdilution MIC, multiresistant Enterobacteriaceae panel; type: cell-based; conditions: for MIC, peak of unimodal distribution: 68 Enterobacteriaceae, FIG. 1
Procedure: (§2) Four compounds, including Compound Nos. 120 and 162 of the present application (RX-04B and RX-04C, respectively) were tested against (i) multiresistant Enterobacteriaceae and Acinetobacter with carbapenemases; (ii) Enterobacteriaceae with MCR-1; and (iii) P. aeruginosa with altered efflux (see Tables 4 and 5). In this case, MCR-1 is relevant because its activity reduces the negative charge of lipopolysaccharides, potentially affecting binding of poly-basic molecules such as the compounds tested herein, as well as polymyxins.
as §1

P. aeruginosa = test: CLSI broth microdilution MIC, P. aeruginosa with altered efflux; type: cell-based
Procedure: as §2, §1

[2] = system: Staphylococcus aureus (S. aureus) 11540 strain; test: Standard microdilution MIC assay, S. aureus; type: cell-based
Procedure, shortened: (§3)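 MICs obtained by CLSI-standard microdilution, quality-controlled with reference strains in parallel. Values reported as + or − relative to a 16 micrograms/mL cutoff.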

[3] = system: Escherichia coli strain ATCC25922; test: Standard microdilution MIC assay, E. coli; type: cell-based
Procedure, shortened: as §3

[4] = Rat five day safety study (bodyweight gain, reticulocyte count change); type: in vivo; conditions: male Sprague-Dawley juvenile rats, n=5, once daily slow intravenous infusion for 5 days at or near maximum-tolerated dose; for BW Result: bodyweight gain; for Hematology Result: reticulocyte count change
Procedure: The compounds of the present disclosure were tested for safety in a multi-day dosing study in rat. Key parameters that were monitored are bodyweight gain and hematological changes, particularly changes in reticulocyte counts. Male Sprague-Dawley (CD) juvenile rats were received from Charles River with double jugular vein catheters. For each compound, n=5. […] Bodyweights were recorded daily for the first 5 days (during the dosing period), then 2 to 3 times per week thereafter. Blood was collected via a jugular vein catheter into EDTA anti-coagulated tubes for complete blood counts (CBC) on Days 0 (baseline), 3 and 7. On Day 22, blood was drawn via a cardiac puncture into EDTA coated tubes for final CBC, and serum separator tubes for the complete clinical chemistry profile. The blood that was collected into serum separator tubes was allowed to clot at room temperature for approximately 30 minutes, spun in a centrifuge at 2000 rpm, and the resulting serum was aliquoted. All samples were sent on wet ice to Charles River Labs for analysis.

A. baumannii = test: CLSI broth microdilution MIC, A. baumannii; type: cell-based
Procedure: as §2, §1

CPE = test: CLSI broth microdilution MIC, carbapenemase-producing Enterobacteriaceae (CPE); type: cell-based; conditions: 35/36 (97%) of CPE, FIG. 2
Procedure: as §2, §1

MCR-1 isolates = test: CLSI broth microdilution MIC, Enterobacteriaceae with MCR-1; type: cell-based; conditions: all MCR-1 isolates (n=14), FIG. 3
Procedure: as §2, §1

[5] = Escherichia coli, read-out: MIC
[6] = Pseudomonas aeruginosa, almost half (48%) of the MICs, FIG. 5, read-out: MIC

Compound | MIC [2] [µg/mL] | MIC [3] [µg/mL] | BW Result [4] | Hematology Result [4] | other results
colistin [reference compound] | – | – | – | – | MIC (E. coli DH10B): 0.25 µg/mL; MIC ([1]; MCR-1 Transformant): 4 µg/mL
N=C(N)NCC[C@@H]1CCC[C@@H](c2ccc(-n3cc4cc(-c5cc(CCC[C@@H](N)CO)cc(Cl)c5F)[nH]c4nc3=O)cc2F)N1 [RX-04C] | – | – | – | – | MIC, peak of unimodal distribution (Enterobacteriaceae): 2 µg/mL; MIC (E. coli DH10B; [5]): 0.5 µg/mL (≈ 0.797 µM); MIC ([1]; Escherichia coli): 0.5 µg/mL (≈ 0.797 µM); MIC (P. aeruginosa; [6]): ≥ 16 µg/mL
CC(=N)NCC[C@@H]1CCC[C@@H](c2c(F)cc(-n3cc4cc(-c5cc(CCC[C@H](C)N)cc(Cl)c5F)[nH]c4nc3=O)cc2F)N1 [Compound 127] | ≤ 16 | ≤ 16 | + (a “+” in “BW result” indicates that the rat exhibited a weight gain of 20% or more) | + (a “+” in “Hematology result” indicates indicates that the rat exhibited a reticulocyte count change of 65% or less) | –
C[C@H](N)CCCc1cc(Cl)c(F)c(-c2cc3cn(-c4ccc([C@@H]5CCC[C@@H](CCNC(=N)CN)N5)cc4)c(=O)nc3[nH]2)c1 [RX-04D] | – | – | – | – | MIC, peak of unimodal distribution (Enterobacteriaceae): 2 µg/mL; MIC (E. coli DH10B; [5]): 1 µg/mL (≈ 1.65 µM); MIC ([1]; Escherichia coli): 1 µg/mL (≈ 1.65 µM); relative activity among analogues (A. baumannii; 10 A. baumannii, FIG. 4): least active analogue; MIC (P. aeruginosa; [6]): ≥ 16 µg/mL
COC[C@H](N)CCCc1cc(-c2cc3cn(-c4ccc([C@@H]5CCC[C@@H](CCNC(C)=N)N5)c(SC)c4)c(=O)nc3[nH]2)c(F)c(C(F)(F)F)c1 [Compound 199] | ≤ 16 | ≤ 16 | + (a “+” in “BW result” indicates that the rat exhibited a weight gain of 20% or more) | − (a “−” indicates indicates that the rat exhibited a reticulocyte count change of greater than 65%) | –
CC(=N)NCC[C@@H]1CCC[C@@H](c2ccc(-n3cc4cc(-c5cc(CCC[C@H](C)N)cc(Cl)c5F)[nH]c4nc3=O)cc2)N1CCCF [Compound 264] | ≤ 16 | ≤ 16 | + (a “+” in “BW result” indicates that the rat exhibited a weight gain of 20% or more) | + (a “+” in “Hematology result” indicates indicates that the rat exhibited a reticulocyte count change of 65% or less) | –
CSc1cc(-n2cc3cc(-c4cc(CCC[C@@H](N)C5CC5)cc(Cl)c4F)[nH]c3nc2=O)ccc1[C@@H]1CCC[C@@H](CCNC(C)=N)N1 [Compound 120] | ≤ 16 | ≤ 16 | + (a “+” in “BW result” indicates that the rat exhibited a weight gain of 20% or more) | + (a “+” in “Hematology result” indicates indicates that the rat exhibited a reticulocyte count change of 65% or less) | –
C[C@H](N)CCCc1cc(OC(F)(F)F)c(F)c(-c2cc3cn(-c4ccc([C@@H]5CCC[C@@H](CCNC(=N)N)N5)cc4)c(=O)nc3[nH]2)c1 [RX-04A] | – | – | – | – | MIC (Enterobacteriaceae; 67/68 (>98%) MICs): 0.25 to 2 µg/mL (≈ 0.389 to 3.11 µM); MIC, peak of unimodal distribution (Enterobacteriaceae): 1 µg/mL; MIC (Enterobacteriaceae; MICs mostly (summary)): 1 to 2 µg/mL (≈ 1.56 to 3.11 µM); MIC relative to the MIC for E. coli ATCC 25922 (CPE): ≤ 4 fold; MIC relative to the MIC for E. coli ATCC 25922 (MCR-1 isolates): ≤ 2 fold; MIC (E. coli DH10B; [5]): 0.25 µg/mL (≈ 0.389 µM); MIC ([1]; Escherichia coli): 0.25 µg/mL (≈ 0.389 µM); MIC (A. baumannii; Acinetobacter baumannii, 7/10 values, read-out: MIC): 1 to 2 µg/mL (≈ 1.56 to 3.11 µM); MIC (A. baumannii; MICs mostly (summary)): 1 to 2 µg/mL; MIC (P. aeruginosa; MICs mostly (summary)): 1 to 4 µg/mL; MIC change in isolates with elevated efflux (P. aeruginosa; P. aeruginosa isolates with elevated efflux): not raised; MIC (P. aeruginosa; Pseudomonas aeruginosa, 19/20 (95%) isolates, read-out: MIC): 1 to 4 µg/mL (≈ 1.56 to 6.22 µM)
COC[C@H](N)CCCc1cc(-c2cc3cn(-c4ccc([C@@H]5CCC[C@@H](CCNC(C)=N)N5)cc4)c(=O)nc3[nH]2)c(F)c(C(F)(F)F)c1 [Compound 190] | ≤ 16 | ≤ 16 | − (a “−” indicates that the rat exhibited a weight gain of less than 20%) | − (a “−” indicates indicates that the rat exhibited a reticulocyte count change of greater than 65%) | –
CC(=N)NCC[C@@H]1CNC[C@@H](c2ccc(-n3cc4cc(-c5cc(CCC[C@H](C)N)cc(Cl)c5F)[nH]c4nc3=O)cc2)N1 [Compound 50] | ≤ 16 | ≤ 16 | + (a “+” in “BW result” indicates that the rat exhibited a weight gain of 20% or more) | + (a “+” in “Hematology result” indicates indicates that the rat exhibited a reticulocyte count change of 65% or less) | –
CC(=N)NCC[C@@H]1CCC[C@@H](c2ccc(-n3cc4cc(-c5cc(CCC[C@H](C)N)cc(Cl)c5F)[nH]c4nc3=O)cc2)N1CCCO [Compound 290] | ≤ 16 | ≤ 16 | + (a “+” in “BW result” indicates that the rat exhibited a weight gain of 20% or more) | + (a “+” in “Hematology result” indicates indicates that the rat exhibited a reticulocyte count change of 65% or less) | –
COC[C@H](N)CCCc1cc(OC(F)(F)F)c(F)c(-c2cc3cn(-c4ccc([C@@H]5CCC[C@@H](CCNC(C)=N)N5)c(F)c4)c(=O)nc3[nH]2)c1 [Compound 196] | ≤ 16 | ≤ 16 | + (a “+” in “BW result” indicates that the rat exhibited a weight gain of 20% or more) | + (a “+” in “Hematology result” indicates indicates that the rat exhibited a reticulocyte count change of 65% or less) | –
C=C[C@@H](N)CCCc1cc(Cl)c(F)c(-c2cc3cn(-c4ccc([C@@H]5CCC[C@@H](CCNC(C)=N)N5)cc4)c(=O)nc3[nH]2)c1 [Compound 36] | ≤ 16 | ≤ 16 | – | − (a “−” indicates indicates that the rat exhibited a reticulocyte count change of greater than 65%) | –
COC[C@H](N)CCCc1cc(-c2cc3cn(-c4ccc([C@@H]5CCC[C@@H](CCNC(C)=N)N5)cc4)c(=O)nc3[nH]2)cc(C(F)(F)F)c1 [Compound 200] | ≤ 16 | ≤ 16 | + (a “+” in “BW result” indicates that the rat exhibited a weight gain of 20% or more) | − (a “−” indicates indicates that the rat exhibited a reticulocyte count change of greater than 65%) | –
CC(=N)N[C@H](C)C[C@@H]1CCC[C@@H](c2ccc(-n3cc4cc(-c5cc(CCC[C@H](C)N)cc(Cl)c5F)[nH]c4nc3=O)cc2)N1 [Compound 254] | ≤ 16 | ≤ 16 | + (a “+” in “BW result” indicates that the rat exhibited a weight gain of 20% or more) | + (a “+” in “Hematology result” indicates indicates that the rat exhibited a reticulocyte count change of 65% or less) | –
COC[C@H](N)CCCc1cc(-c2cc3cn(-c4ccc([C@@H]5CCC[C@@H](CCNC(C)=N)N5)c(F)c4)c(=O)nc3[nH]2)c(F)c(C(F)(F)F)c1 [Compound 191] | ≤ 16 | ≤ 16 | + (a “+” in “BW result” indicates that the rat exhibited a weight gain of 20% or more) | + (a “+” in “Hematology result” indicates indicates that the rat exhibited a reticulocyte count change of 65% or less) | –
CC(=N)NCC[C@@H]1CCC[C@@H](c2ccc(-n3cc4cc(-c5cc(CCC[C@H](C)N)c(C(F)(F)F)cc5F)[nH]c4nc3=O)cc2)N1 [Compound 317] | ≤ 16 | ≤ 16 | − (a “−” indicates that the rat exhibited a weight gain of less than 20%) | − (a “−” indicates indicates that the rat exhibited a reticulocyte count change of greater than 65%) | –
CC(=N)NCC[C@@H]1CCC[C@@H](c2ccc(-n3cc4cc(-c5cc(CCC[C@H](C)N)cc(Cl)c5F)[nH]c4nc3=O)cc2F)N1 [Compound 152] | ≤ 16 | ≤ 16 | + (a “+” in “BW result” indicates that the rat exhibited a weight gain of 20% or more) | + (a “+” in “Hematology result” indicates indicates that the rat exhibited a reticulocyte count change of 65% or less) | –
CSc1cc(-n2cc3cc(-c4cc(CCC[C@@H](N)C5CC5)cc(Cl)c4F)[nH]c3nc2=O)ccc1[C@@H]1CCC[C@@H](CCNC(=N)N)N1 [RX-04B] | – | – | – | – | MIC, peak of unimodal distribution (Enterobacteriaceae): 1 µg/mL; MIC (E. coli DH10B; [5]): 0.5 µg/mL (≈ 0.752 µM); MIC ([1]; Escherichia coli): 0.5 µg/mL (≈ 0.752 µM)
